Test results published in patent publication US10053433B2, “Androgen receptor antagonists” (THE REGENTS OF THE UNIVERSITY OF CALIFORNIA, priority 2014, dated 2018).
Where two headings read alike, the source gives them in different places.

Legend:
[1] = molecular target: AR ligand-binding domain (AR LBD) (Homo sapiens (Human), UniProt P10275); assay: Gal4-luciferase reporter assay, Gal-AR LBD in HeLa cells; assay type: cell-based
From the text: In order to test the effect of ligands on the AR ligand-binding domain (AR LBD), a Gal4-luciferase reporter assay was used. Briefly, the AR LBD is expressed as a fusion with the Gal4 transcription factor, which binds to the Gal4 reporter DNA. Upon activation with agonist hormone (DHT), the Gal-AR LBD binds to the Gal4 reporter gene, which in turn drives the transcription (and subsequently translation) of the reporter luciferase. The effect of antiandrogens (competitive antagonists) on this process is measured by quantifying the amount of luciferase activity after 24 hours in the presence of varying concentrations of antiandrogens. From these values, an IC50 for each antagonist is calculated. Experimentally, Hela cells were maintained in Dulbecco's modified Eagle's medium H-21 4.5 g/L glucose, containing 10% steroid depleted fetal bovine serum, 50 units/mL penicillin. For transfection, (1×10^5) cells per well were plated and incubated overnight. […] Cells were induced with 1 nM DHT and 0.1 nM-30 uM test compounds after 3 hr and then incubated over night. Cells were collected, and pellets were lysed in 100 μL of 100 mM Tris-HCl (pH 7.5) containing 0.1% Triton X-100. Luciferase and β-galactosidase activities were measured using the Luciferase Assay System (Promega) and Galacto-Light Plus-galactosidase reporter gene assay system (Applied Biosystems), according to the manufacturer's instructions.

full length AR = full length AR (Homo sapiens (Human), UniProt P10275); assay: mmTV-luciferase reporter assay, full length AR in HeLa cells; assay type: cell-based
Chain of full length AR (P10275 other isoform, or with tags, fused parts or gaps): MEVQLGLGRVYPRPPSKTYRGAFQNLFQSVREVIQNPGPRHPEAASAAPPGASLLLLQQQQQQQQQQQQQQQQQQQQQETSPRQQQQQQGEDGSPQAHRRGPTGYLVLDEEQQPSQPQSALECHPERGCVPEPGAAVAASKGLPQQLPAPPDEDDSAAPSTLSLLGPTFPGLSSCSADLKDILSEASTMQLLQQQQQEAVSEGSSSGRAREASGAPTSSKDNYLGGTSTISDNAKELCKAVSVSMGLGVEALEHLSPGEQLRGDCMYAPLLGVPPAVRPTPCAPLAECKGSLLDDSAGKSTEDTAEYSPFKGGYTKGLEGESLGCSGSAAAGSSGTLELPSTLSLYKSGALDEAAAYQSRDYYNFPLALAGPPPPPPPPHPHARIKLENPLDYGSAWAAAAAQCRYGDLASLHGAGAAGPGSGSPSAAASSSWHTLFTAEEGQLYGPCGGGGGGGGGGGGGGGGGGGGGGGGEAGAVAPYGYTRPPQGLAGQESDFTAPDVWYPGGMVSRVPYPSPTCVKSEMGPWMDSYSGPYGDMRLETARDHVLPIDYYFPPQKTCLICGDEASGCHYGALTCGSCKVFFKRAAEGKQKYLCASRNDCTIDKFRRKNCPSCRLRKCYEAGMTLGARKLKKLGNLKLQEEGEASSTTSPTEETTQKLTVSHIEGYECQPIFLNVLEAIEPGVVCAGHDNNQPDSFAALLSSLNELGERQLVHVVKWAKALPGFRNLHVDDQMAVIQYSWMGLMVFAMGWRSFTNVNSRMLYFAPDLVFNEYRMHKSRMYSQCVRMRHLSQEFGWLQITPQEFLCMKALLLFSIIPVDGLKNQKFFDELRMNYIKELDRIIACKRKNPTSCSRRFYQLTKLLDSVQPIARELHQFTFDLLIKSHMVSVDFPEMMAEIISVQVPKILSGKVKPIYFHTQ
Protocol: In order to test the effect of antiandrogens on full length AR, a mmTV-luciferase reporter assay was used. An AR-response element is contained within the mmTV sequence and drives the expression of luciferase. The effect of antiandrogens (competitive antagonists) on this process is measured by quantifying the amount of luciferase activity after 24 hours in the presence of varying concentrations of antiandrogens. From these values, an IC50 for each antagonist is calculated. Experimentally, HeLa cells were maintained in Dulbecco's modified Eagle's medium H-21 4.5 g/L glucose, containing 10% steroid depleted fetal bovine serum, 50 units/mL penicillin. For transfection, (1×10^5) cells per well were plated and incubated overnight. […] Cells were induced with 1 nM DHT and 0.1 nM-30 uM compounds after 3 hrs and then incubated overnight. Cells were collected, and pellets were lysed in 100 μL of 100 mM Tris-HCl (pH 7.5) containing 0.1% Triton X-100. Luciferase and β-galactosidase activities were measured using the Luciferase Assay System (Promega) and Galacto-Light Plus-galactosidase reporter gene assay system (Applied Biosystems), according to the manufacturer's instructions.

[2] = molecular target: endogenous full length AR (Homo sapiens (Human), UniProt P10275, T878A); assay: mmTV-luciferase reporter assay, endogenous AR in LNCaP cells; assay type: cell-based; conditions: 10 nM DHT, read-out: LVCaP data
Chain of endogenous full length AR (P10275 whole entry T878A): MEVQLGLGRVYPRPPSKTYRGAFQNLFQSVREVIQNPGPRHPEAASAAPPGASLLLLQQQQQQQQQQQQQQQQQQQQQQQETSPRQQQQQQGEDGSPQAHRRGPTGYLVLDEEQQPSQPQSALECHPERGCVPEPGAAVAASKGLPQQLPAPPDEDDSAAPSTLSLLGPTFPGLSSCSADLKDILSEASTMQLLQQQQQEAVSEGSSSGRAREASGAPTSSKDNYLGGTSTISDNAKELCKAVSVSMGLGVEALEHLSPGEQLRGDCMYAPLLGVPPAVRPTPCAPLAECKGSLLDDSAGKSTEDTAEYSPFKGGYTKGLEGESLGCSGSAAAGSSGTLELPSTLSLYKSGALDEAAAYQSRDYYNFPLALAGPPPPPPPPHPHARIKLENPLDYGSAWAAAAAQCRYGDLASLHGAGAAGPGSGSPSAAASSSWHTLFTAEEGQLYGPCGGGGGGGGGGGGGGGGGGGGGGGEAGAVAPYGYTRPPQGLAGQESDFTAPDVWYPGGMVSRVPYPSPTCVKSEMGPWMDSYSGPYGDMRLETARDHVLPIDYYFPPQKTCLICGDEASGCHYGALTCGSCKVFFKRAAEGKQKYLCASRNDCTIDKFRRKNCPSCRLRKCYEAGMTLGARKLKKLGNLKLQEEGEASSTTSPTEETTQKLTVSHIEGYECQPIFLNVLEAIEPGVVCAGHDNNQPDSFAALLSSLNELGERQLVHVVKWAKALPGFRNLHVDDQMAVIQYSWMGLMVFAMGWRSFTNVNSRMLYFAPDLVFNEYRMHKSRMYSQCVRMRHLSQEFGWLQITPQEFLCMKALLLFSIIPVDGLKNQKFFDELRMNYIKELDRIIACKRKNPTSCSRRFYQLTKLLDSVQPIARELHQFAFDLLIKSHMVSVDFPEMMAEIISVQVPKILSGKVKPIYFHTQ

[3] = in vivo; cited from earlier work
[4] = Gal-AR LBD, Gal4-luciferase reporter, HeLa cells, 1 nM DHT, read-out: LBD IC50
[5] = in relationship to the experimental casodex data
[6] = full length AR, mmTV-luciferase reporter, HeLa cells, 1 nM DHT, read-out: FL IC50

Chain of AR ligand-binding domain (AR LBD) (P10275 669-900): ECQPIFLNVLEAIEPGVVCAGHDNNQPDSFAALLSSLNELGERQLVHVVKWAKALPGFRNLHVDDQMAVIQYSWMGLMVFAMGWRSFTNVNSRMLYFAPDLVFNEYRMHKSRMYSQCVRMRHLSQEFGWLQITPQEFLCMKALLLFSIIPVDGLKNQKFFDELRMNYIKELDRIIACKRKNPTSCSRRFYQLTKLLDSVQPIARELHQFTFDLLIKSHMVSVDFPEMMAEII

| Structure (SMILES) | IC50 [1] | IC50 [1, 4] | Fold chg (LBD) [1, 5] | IC50 (full length AR; [6]) | Fold chg (FL) (full length AR; [5]) | Fold change* ([1]; Table 4, relative to CDX) | further results |
| --- | --- | --- | --- | --- | --- | --- | --- |
| C[C@](O)(CS(=O)(=O)c1ccc(F)cc1)C(=O)Nc1cc(C(F)(F)F)c(C#N)cn1 [FC 3.077] | 490 ± 60 nM |  |  |  |  |  | Fold change* [1]: 0.74; Fold chg (LBD) [1]: 0.74; Fold chg (FL) (full length AR): 0.33 |
| C=CS(=O)(=O)C(c1ccc(NC(=O)[C@@](C)(O)CS(=O)(=O)c2ccc(F)cc2)cc1C(F)(F)F)S(=O)(=O)C=C [FC 4.025] |  | 580 ± 110 nM | 0.62 | 1.29 ± 1.29 µM | 0.78 |  |  |
| C=CC(=O)Nc1ccc(NC(=O)[C@@](C)(O)CS(=O)(=O)c2ccc(F)cc2)cc1C(F)(F)F [FC 4.039] |  | 750 ± 260 nM | 0.48 |  |  |  |  |
| C[C@](O)(CS(=O)(=O)c1ccc(F)cc1)C(=O)Nc1cccc(C(F)(F)F)c1 [FC 4.116] |  | 2530 ± 1160 nM | 0.14 | 71.7 µM | 0.014 | 0.14 | IC50 [2]: 530 ± 270 nM |
| C[C@](O)(CS(=O)(=O)c1ccc(F)cc1)C(=O)Nc1cc(C(F)(F)F)ccn1 [FC 4.125] | 22400 ± 41800 nM |  | 0.016 |  |  | 0.016 |  |
| C[C@](O)(CS(=O)(=O)c1ccc(F)cc1)C(=O)Nc1cncc(C(F)(F)F)c1 [FC 4.126] |  | 1550 ± 410 nM | 0.23 | 12.4 ± 14.2 µM | 0.08 | 0.23 | IC50 [2]: 110 ± 20 nM |
| C[C@](O)(CS(=O)(=O)c1ccc(F)cc1)C(=O)Nc1ccc([N+](=O)[O-])c(C(F)(F)F)c1 [FC 4.127] | 7260 ± 10700 nM |  |  |  |  |  | Fold change* [1]: 0.05; Fold chg (LBD) [1]: 0.050; Fold chg (FL) (full length AR): 0.11; IC50 (full length AR): 8.74 ± 15.8 µM |
| CC(O)(CS(=O)(=O)c1ccc(F)cc1)C(=O)Nc1ccc(C#N)c(C(F)(F)F)c1 (stereo not shown) [bicalutamide] |  |  |  |  |  |  | tolerability [3]: well tolerated with very few side effects |
